PMC4564171 (PLoS ONE, 2015)

B1: pvirB FP probe (dsDNA)
DNA 1: AGAATATTATTCTTTTATCCAATAAAGATAAATTGCATCAATCCAGCTATTAAAATAGTA
DNA 2: TACTATTTTAATAGCTGGATTGATGCAATTTATCTTTATTGGATAAAAGAATAATATTCT
B2: pvirB EMSA probe (dsDNA)
DNA 1: GTGCCCTGGTCTGG
DNA 2: B1 DNA 1
DNA 3: TACTATTTTAATAGCTGGATTGATGCAATTTATCTTTATTGGATAAAAGAATAATATTCTCCAGACCAGGGCAC
B3: pScram FP probe (dsDNA)
DNA 1: TAAGTCCTAAATGGAAATTAAATTACGTAATTCACAAATATAGTATGATCATTTATATCA
DNA 2: TGATATAAATGATCATACTATATTTGTGAATTACGTAATTTAATTTCCATTTAGGACTTA
B4: pScram EMSA probe (dsDNA)
DNA 1: GTGCCCTGGTCTGG
DNA 2: B3 DNA 1
DNA 3: TGATATAAATGATCATACTATATTTGTGAATTACGTAATTTAATTTCCATTTAGGACTTACCAGACCAGGGCAC

Columns and labels:
[1] = tested on: 60 bp pvirB FID (DNA, duplex) AGAATATTATTCTTTTATCCAATAAAGATAAATTGCATCAATCCAGCTATTAAAATAGTA/TACTATTTTAATAGCTGGATTGATGCAATTTATCTTTATTGGATAAAAGAATAATATTCT; assay: fluorescent intercalator displacement (ethidium bromide); details: 0.1 M NaCl; 0.1 M Tris-HCl pH 8.0, room temperature; 45 μM ethidium; 1.5 μM DNA; highest tested 100 μM
[2] = tested on: 10 bp pvirB 51-60 FID (DNA, duplex) TAAAATAGTA/TACTATTTTA; assay: as above; details: 0.1 M NaCl; 0.1 M Tris-HCl pH 8.0, room temperature; 7.5 μM ethidium; 1.5 μM DNA; highest tested 100 μM
[3] = target: T1, MalE-VirF binding to the pvirB DNA probe (Shigella flexneri, UniProt P0A2T1); assay: Fluorescence polarization (FP) assay, inhibition of MalE-VirF binding to the pvirB DNA probe; details: read-out: % Inhibition at 100 μM
T1 construct: pMALvirF was constructed by cloning the virF gene into the vector, pMAL-c2x; made in house; host or cells: Shigella flexneri BS103 (pBAD202-MALvirF); initial preparations in E. coli KS1000 (pMALvirF)
Description: The FP assays were conducted in duplicate in black, half-area, 96-well plates (Corning, Twerksbury, MA). First, 30 μL of 5’-Fluoroscein-pvirB DNA probe working standard was added to appropriate wells of the microplate. The pvirB DNA working standard was in TE/NaCl buffer (see above) supplemented with BSA (0.07 mg/mL) and salmon sperm DNA (0.7 mg/mL). Next, 30 μL of varying concentrations of MalE-VirF in amylose resin elution buffer (see above) was added to appropriate wells of the microplate. The final concentration of pvirB DNA was either 50 nM (for test wells) or none (for blank wells) and the final concentrations of MalE-VirF ranged from 45 μM to 0.12 μM (for test wells) or none (for control wells). For each concentration of MalE-VirF tested, a blank well was also set up that included all reagents except pvirB DNA. The microplate was then incubated for 20 minutes at 37°C and anisotropy was determined using a SpectraMax M5 plate reader (Molecular Devices, Sunnyvale, CA). Data was acquired using an excitation wavelength equal to 490 nm and an emission wavelength equal to 520 nm. To determine anisotropy the following equation was used: Anisotropy=F∥-G^*F⊥/F∥+2^*G^*F⊥^*1000 where: Fǁ = fluorescence intensity parallel to excitation source after blanking, F┴ = fluorescence intensity perpendicular to excitation source after blanking, and G = G-factor (correction for polarization bias of the detection system). After anisotropy was determined, data were plotted using GraphPad Prism (La Jolla, Ca) and fit to the following equation: […] where Y = specific binding, KD = dissociation constant, BMAX = maximum binding, X = MalE-VirF concentration, and b = y-intercept.
The FP protocol listed above was adapted to determine the IC50 of the small molecule hit compounds. Compounds (ranging from 200 μM to 3.1 μM) or DMSO for controls (1% final concentration) were added to the pvirB DNA probe working standard prior to addition to the microplates. For IC50 determination, the MalE-VirF and pvirB DNA probe concentrations were held constant at 20 μM and 50 nM, respectively. Positive controls were established to determine 100% VirF inhibition (no MalE-VirF present, 50 nM pvirB DNA probe) and negative controls were set up to determine no VirF inhibition (1% DMSO, 20 μM MalE-VirF, and 50 nM pvirB DNA probe). Once again blanks were set up to include all reagents, except pvirB DNA probe. All reactions were run in duplicate. Anisotropy was calculated as listed above and data were plotted using GraphPad Prism then fit to the following equation: Y=Bottom+(Top-Bottom)/(1+10^(X-logIC50)) where: Y = anisotropy, X = log of compound concentration (M), Top and Bottom = plateaus in anisotropy units, and LogIC50 = log of the concentration that inhibits 50% of VirF binding. In the presence of the compounds (no VirF), a small increase (~6%) in the DNA anisotropy was observed.
The FP protocol used for IC50 determination was adapted to test a library of small molecule inhibitors of VirF. All steps were identical to the above protocol except compounds were tested at only 100 μM final concentration and positive control samples included 100 μM of compound. Once again blanks were set up to include all reagents, except pvirB DNA probe, and all reactions were run in duplicate. Anisotropy was calculated as listed above, and %inhibition was calculated as follows: %inhibition=rneg-rtest/rneg^*100 where: rneg = average anisotropy for negative controls and rtest = average anisotropy in presence of compound. Note: All rneg and rtest values were normalized to positive control values.

[4] = tested on: spread of an active S. flexneri infection; details: at concentrations at or below their IC50s in the reporter assay; cited from earlier work
[5] = target: T2, MalE-VirF binding to the 5'Cy5-pvirB DNA probe (Shigella flexneri, UniProt P0A2T1); assay: Electrophoretic mobility shift assay (EMSA) of MalE-VirF binding to pvirB DNA probe; details: compound 100 μM; MalE-VirF 1 μM; probe 0.25 μM
T2 construct: pMALvirF was constructed by cloning the virF gene into the vector, pMAL-c2x; made in house; host or cells: Shigella flexneri BS103 (pBAD202-MALvirF); initial preparations in E. coli KS1000 (pMALvirF)
Description: Reactions for the EMSAs were incubated in a 37°C water bath for 15 minutes. Reactions (15 μL total volume) were composed of 6 μL pvirB EMSA DNA probe (0.25 μM), 6 μL of either MalE-VirF (1.0 μM) or native gel loading buffer (Tris-HCl 0.3 M, 50% glycerol, 0.05% bromophenol blue, pH 7.0), 1 μL of salmon sperm DNA (0.7 mg/mL, Invitrogen), 0.5 μL BSA (0.07 mg/mL), and 1.5 μL of either DMSO or compound (100 μM). A 6% native polyacrylamide gel (29:1 acrylamide to bis-acrylamide ratio) was made with 0.25X TBE buffer (22 mM Tris Base, 22 mM boric acid, 0.5 mM EDTA, pH 9.5) for the EMSA. The gel was electrophoresed for 1 hour at 150 V in 0.25X TBE buffer at 4°C before samples were loaded. After the reaction solutions (12 μL) were loaded onto the gel, the gel was electrophoresed for an additional hour at 150 V and 4°C. The gel was then visualized using FluorChem M gel imager (Protein Simple, Santa Clara, CA) with a 607 nm excitation wavelength and a 710 nm emission filter.

[6] = target: T3, MalE-VirF (Shigella flexneri, UniProt P0A2T1 1-262); assay: fluorescence anisotropy; details: protein: recombinant; tags: N-terminal MalE (MBP) fusion, not cleaved; label: 5'-fluorescein on top strand; blunt
[7] = target: T3, MalE-VirF; assay: EMSA; 1 uM MalE-VirF, 0.25 uM DNA; details: protein: recombinant, tags: N-terminal MalE (MBP) fusion, not cleaved, label: 5'-Cy5 on LUEGO strand (S5), blunt, three strands
[8] = target: T3, MalE-VirF; assay: fluorescence anisotropy; 20 uM MalE-VirF, 50 nM DNA (r = 39 alone, 36 with protein); details: protein: recombinant; tags: N-terminal MalE (MBP) fusion, not cleaved; label: 5'-fluorescein on top strand; blunt

T1 sequence (P0A2T1 whole entry, looked up): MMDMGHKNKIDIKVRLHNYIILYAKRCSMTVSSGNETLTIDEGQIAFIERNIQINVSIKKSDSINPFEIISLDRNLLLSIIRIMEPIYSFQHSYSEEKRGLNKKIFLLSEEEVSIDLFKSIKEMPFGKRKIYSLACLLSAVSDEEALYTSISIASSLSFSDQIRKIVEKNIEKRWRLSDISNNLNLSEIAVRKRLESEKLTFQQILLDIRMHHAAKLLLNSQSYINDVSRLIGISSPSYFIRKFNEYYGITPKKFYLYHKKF
T3 sequence (P0A2T1 whole entry, the tested form may be a part): as the sequence (P0A2T1 whole entry, looked up) above
T2 sequence (P0A2T1 whole entry, looked up): as above

Row | Molecule | inhibition at 100 µM [3] [%] | also measured
1 | CNCCOc1nc(-c2ccccc2)nc2c1oc1ccccc12 | – | %fluorescence [1]: 93 ± 3%; %fluorescence [2]: 95 ± 1%
2 | CCN(CC)CCNc1nc(-c2ccccc2)nc2c1oc1ccccc12 [compound 048373] | 15 ± 0.4 | –
3 | CCN(CC)CCOc1nc(C)nc2c1oc1ccccc12 [compound 050908] | 18 ± 0.4 | –
4 | CN1CCN(c2nc(-c3ccccc3)nc3c2oc2ccccc23)CC1 [compound 078044] | 42 ± 0.4 | –
5 | Clc1ccc2nc(COc3ccccc3)[nH]c2c1 [compound 153578] | – | Inhibition of the spread of an active S. flexneri infection [4]: approximately 75%; Effect on MalE-VirF binding to the pvirB DNA probe (EMSA) [5]: little to no effect on DNA binding
6 | c1ccc(-c2nc(N3CCN(c4ccccc4)CC3)c3oc4ccccc4c3n2)cc1 [compound 568180] | 2 ± 0.1 | –
7 | CCN(CC)CCOc1nc(-c2ccccc2)nc2c1oc1ccccc12 [compound 587109] | 43 ± 1 | –
8 | CCc1nc(OCCN(C)C)c2oc3ccccc3c2n1 [compound 587469] | 16 ± 0.4 | –
9 | CCN(CC)CCCOc1nc(-c2ccccc2)nc2c1oc1ccccc12 [compound 598089] | 68 | –
10 | O=c1[nH]c(-c2ccc(C(F)(F)F)cc2)nc2c1oc1ccccc12 [compound 765345] | 1 ± 0.1 | –
11 | c1ccc(-c2nc(N3CCOCC3)c3oc4ccccc4c3n2)cc1 [compound 9111063] | -5 ± 0.1 | –
12 | c1ccc(-c2nc(Oc3cccnc3)c3oc4ccccc4c3n2)cc1 [compound 9660232] | 17 ± 2 | –
13 | CCN(CC)c1cccc(Oc2nc(-c3ccccc3)nc3c2oc2ccccc23)c1 [compound 9660235] | 5 ± 0.2 | –
14 | B1 | – | Kd [6]: 2800 ± 1000 nM
15 | B2 | – | binding result ([7]; LUEGO (S5) and top (S1) abut with a nick on bottom S2 (74 nt)): binds
16 | B3 | – | binding result [8]: no binding
17 | B4 | – | binding result ([7]; LUEGO (S5) and top (S3) abut with a nick on bottom S4 (74 nt)): no binding
